Test results from publication PMC11434868, “Synthesis and Antiproliferative Effect of 3,4,5-Trimethoxylated Chalcones on Colorectal and Prostatic Cancer Cells” (Pharmaceuticals, 2024).
Where two headings read alike, the source gives them in different places.

How the values were obtained:
DU145 = assay: MTT assay, antiproliferative effect on DU145; type: cell-based; conditions: Homo sapiens
Experimental: (§1) Human CRC (HCT116 and HT-29) and PCa (DU145 and PC3) cell lines were purchased from the American Type Culture Collection (ATCC—LGC Standards, Molsheim, France). All cells were grown in RPMI 1640 medium supplemented with 10% FBS, 1% L-glutamine, 100 U/mL penicillin, and 100 μg/mL streptomycin. Cultures were maintained in a humidified atmosphere containing 5% CO2 at 37 °C. Cells were seeded in 75 cm^2 culture flasks at 1.2 × 10^4 cells/cm^2 for HCT116, DU145, and PC3 cells, and 2.0 × 10^4 for HT-29 cells. Cells were grown for 24 h in culture medium prior to exposure or not to obtain the synthesized compounds. Stock solutions (10^−2 M in DMSO) of each compound were diluted in culture medium to obtain appropriate final concentrations.
(§2) • (a) MTT assay: The antiproliferative effect of all compounds was determined using MTT assay (a metabolic activity test). Briefly, cells were seeded in 96-well culture plates at 4 × 10^3 cells/well for HCT116, PC3, and DU145 cells and 6 × 10^3 cells/well for HT-29 cells (100 µL/well), and grown for 24 h in culture medium prior to exposure or not to obtain compounds 1–15 with concentrations ranging from 5 nM to 50 μM. After 24 and 48 h of treatment, MTT (5 mg/mL in PBS) was added and incubated for another 3 h. MTT was then removed from the wells before adding 100 μL/well of DMSO. The optical density was detected with a microplate reader (Multiskan FC, Thermoscientific, Bordeaux, France) at 550 nm and cell viability was expressed as a percentage of each treatment condition compared to control cells. IC50 values were calculated for all compounds from the dose–response curve. Data are expressed as the arithmetic means ± standard error of the mean (SEM) of separate experiments. All experiments were performed at least in triplicate. • (b) Trypan blue dye exclusion method: Cells were grown for 24 h then treated with compounds 10 and 13 at indicated concentrations. After 48 h of treatment, cells were trypsinized and resuspended in complete medium. Each sample was mixed with Trypan blue solution (0.14% in HBSS, Invitrogen-GIBCO, ThermoFisher, Illkirch, France). Colored (non-viable) and dye-excluding (viable) cells were counted with the LUNA-II automated cell Counter (Logos Biosystems; MC2, Aubière, France). The control was normalized to 100% including viable and dead cells. The results indicated on the histograms were expressed as the percentage of cells compared to the control. IC50 values were determined from the percentages of viable cells compared to the control.

HT-29 = assay: MTT assay, antiproliferative effect on HT-29; type: cell-based, human
Experimental: as §1, §2

PC3 = assay: MTT assay, antiproliferative effect on PC3; type: cell-based; conditions: Homo sapiens
Experimental: as §1, §2

HCT116 = assay: MTT assay, antiproliferative effect on HCT116; type: cell-based; conditions: Homo sapiens
Experimental: as §1, §2

[1] = tested on: cellular microtubules in HeLa cells; assay: Quantitative assay of the cellular microtubule content (immunoluminescence); type: cell-based; conditions: 30 min incubation
Experimental: The assay was realized as described by Laisne et al.. Briefly, 7500 HeLa cells were seeded in 96-well microplates (#655086, Greiner bioOne, Courtaboeuf, France) in 100 µL of complete medium per well and then incubated at 37 °C in 5% CO2 for 24 h. Cells were then treated for 30 min at 37 °C with the compounds at concentrations ranging from 0.1 to 1000 µM (1 microplate per molecule, 1 concentration per column), with 0.1% DMSO used as […] (6 wells per microplate). After medium aspiration, treated cells were permeabilized for 10 min using 100 µL per well of warmed (37 °C) OPT buffer (80 mM Pipes, 1 mM EGTA, 1 mM MgCl2, 0.5% Triton X-100, and 10% glycerol, pH 6.8). Cells were fixed overnight at room temperature using 100 µL per well of 4% formaldehyde (Sigma Aldrich, #252549, Saint-Quentin-Fallavier, France) in PBS. Cells were washed 3 times in PBS, 0.1% Tween-20 (100 µL per well), then primary anti-alpha-tubulin antibody (clone α3A1), 1:5000 in PBS 2% Bovine Serum Albumin (BSA), was added for 45 min. Cells were washed twice again and secondary anti-mouse antibody coupled to HRP (1:2000 in PBS 2% BSA, #715-035-150, Jackson Immuno-Research Laboratories, Cambridgeshire, UK) was added for 45 min. Then, cells were washed again with PBS and 100 µL of ECL substrate (#170-5061, Bio-Rad Laboratories Inc., Hercules, CA, USA) was injected in each well using the FLUOstar OPTIMA Microplate Reader (BMG Lab technology, Champagny-sur-Marne, France). The luminescent signal was read immediately after ECL injection. IC50 values were calculated using GraphPad Prism software (10.3.1 version) and are presented in the text as means ± SEM of three independent experiments.

[2] = tested on: human CRC (HCT116 and HT-29) and human PCa (DU145 and PC3) cell lines; assay: MTT assay, summary statements over the cell lines; type: cell-based; conditions: Homo sapiens, 48 h; read-out: IC50 over the four cell lines
Experimental: as §1, §2

[3] = DU-145, 24 h, read-out: IC50 DU145 24 h
[4] = DU-145, 48 h, read-out: IC50 DU145 48 h
[5] = Homo sapiens, HT-29, 24 h, 24 h, read-out: IC50 HT-29 24 h
[6] = Homo sapiens, HT-29, 48 h, 48 h, read-out: IC50 HT-29 48 h
[7] = PC-3, 24 h, read-out: IC50 PC3 24 h
[8] = PC-3, 48 h, read-out: IC50 PC3 48 h
[9] = HCT-116, 24 h, read-out: IC50 HCT116 24 h
[10] = HCT-116, 48 h, read-out: IC50 HCT116 48 h
[11] = 48 h, read-out: IC50 HT-29 48 h

| Compound | IC50 (DU145; [3]) [µM] | IC50 (DU145; [4]) [µM] | IC50 (HT-29; [5]) [µM] | IC50 (HT-29; [6]) [µM] | IC50 (PC3; [7]) [µM] | IC50 (PC3; [8]) [µM] | IC50 (HCT116; [9]) [µM] | IC50 (HCT116; [10]) [µM] | IC50 (HT-29; [11]) [µM] | melting point [°C] | IC50 depolymerization of cellular microtubules [1] | IC50 [2] [µM] | activity against the HT-29 cell line (HT-29) |
| --- | --- | --- | --- | --- | --- | --- | --- | --- | --- | --- | --- | --- | --- |
| COc1cc(C(=O)/C=C/c2ccccc2O)cc(OC)c1OC [chalcone 1, (E)-3-(2-hydroxyphenyl)-1-(3,4,5-trimethoxyphenyl)prop-2-en-1-one] | 5.33 ± 0.42 | 3.6 ± 0.1 | 10.8 ± 0.57 | 9.65 ± 0.12 | 5.04 ± 0.29 | 4.23 ± 0.35 | 4.54 ± 0.65 | 3.27 ± 0.11 |  |  |  |  |  |
| COc1ccc(O)cc1/C=C/C(=O)c1cc(OC)c(OC)c(OC)c1 [chalcone 5, (E)-3-(5-hydroxy-2-methoxyphenyl)-1-(3,4,5-trimethoxyphenyl)prop-2-en-1-one] | 5.5 ± 0.26 | 4.37 ± 0.3 | 25.2 ± 1.28 | > 20 | 5.54 ± 0.31 | 4 ± 0.3 | 8.72 ± 0.41 | 4.92 ± 0.49 | 22.1 ± 0.48 |  |  |  |  |
| COc1cc(C(=O)/C=C/c2coc3ccc(C(C)C)cc3c2=O)cc(OC)c1OC [chalcone 14, (E)-6-isopropyl-3-(3-oxo-3-(3,4,5-trimethoxyphenyl)prop-1-en-1-yl)-4H-chromen-4-one] | 13.2 ± 0.49 | 12.4 ± 0.2 | 22.9 ± 0.72 | 17 ± 1.41 | 14.11 ± 0.04 | 12.8 ± 0.37 | 15.3 ± 0.52 | 13.3 ± 0.3 |  | 183 to 185 |  |  |  |
| COc1cc(C(=O)/C=C/c2ccc(O)cc2)cc(OC)c1OC [chalcone 3, (E)-3-(4-hydroxyphenyl)-1-(3,4,5-trimethoxyphenyl)prop-2-en-1-one] | 11.3 ± 0.48 | 11.2 ± 0.44 | 17.9 ± 0.69 | 15.1 ± 0.46 | 10.94 ± 0.1 | 9.85 ± 0.43 | 11.62 ± 0.06 | 12.1 ± 0.44 |  |  | no effect |  |  |
| COc1cc(C(=O)/C=C/c2ccc(=O)[nH]c2)cc(OC)c1OC [chalcone 11, (E)-5-(3-oxo-3-(3,4,5-trimethoxyphenyl)prop-1-en-1-yl)pyridin-2(1H)-one] | 22.3 ± 0.76 | 15.6 ± 0.84 | 35.6 ± 0.94 | > 20 | 24.5 ± 0.64 | 17.7 ± 0.55 | 25.2 ± 0.48 | 16.6 ± 0.79 | 23.6 ± 0.37 | 217 to 219 |  | > 15 |  |
| COc1cc(O)ccc1/C=C/C(=O)c1cc(OC)c(OC)c(OC)c1 [chalcone 4, (E)-3-(4-hydroxy-2-methoxyphenyl)-1-(3,4,5-trimethoxyphenyl)prop-2-en-1-one] | 4.2 ± 0.2 | 2.69 ± 0.22 | 21.3 ± 0.94 | 17.7 ± 0.29 | 4.8 ± 0.48 | 3.05 ± 0.12 | 8.79 ± 0.39 | 3.98 ± 0.22 |  |  |  |  |  |

Now from value to molecule, other results behind:

| IC50 (DU145; [3]) [µM] | IC50 (DU145; [4]) [µM] | IC50 (HT-29; [5]) [µM] | IC50 (HT-29; [6]) [µM] | IC50 (PC3; [7]) [µM] | IC50 (PC3; [8]) [µM] | IC50 (HCT116; [9]) [µM] | IC50 (HCT116; [10]) [µM] | IC50 (HT-29; [11]) [µM] | melting point [°C] | IC50 depolymerization of cellular microtubules [1] | IC50 [2] [µM] | Compound | activity against the HT-29 cell line (HT-29) |
| --- | --- | --- | --- | --- | --- | --- | --- | --- | --- | --- | --- | --- | --- |
| 2.84 ± 0.14 | 2.7 ± 0.1 | 12.3 ± 0.37 | 10.6 ± 0.62 | 3.31 ± 0.22 | 2.81 ± 0.16 | 5.27 ± 0.37 | 3.44 ± 0.42 |  |  |  |  | COc1ccc(O)c(/C=C/C(=O)c2cc(OC)c(OC)c(OC)c2)c1 [chalcone 6, (E)-3-(2-hydroxy-5-methoxyphenyl)-1-(3,4,5-trimethoxyphenyl)prop-2-en-1-one] |  |
| 3.88 ± 0.32 | 7.09 ± 0.52 | > 50 |  | 6.48 ± 0.4 | 7.6 ± 0.44 | 5.84 ± 0.28 | 14.1 ± 0.27 |  |  |  |  | COc1cc(C(=O)/C=C/c2coc3ccc(O)cc3c2=O)cc(OC)c1OC [chalcone 15, (E)-6-hydroxy-3-(3-oxo-3-(3,4,5-trimethoxyphenyl)prop-1-en-1-yl)-4H-chromen-4-one] | not active |
| 3.75 ± 0.15 | 2.41 ± 0.08 | 32.6 ± 0.51 | > 20 | 4.42 ± 0.24 | 2.97 ± 0.13 | 8.58 ± 0.28 | 3.48 ± 0.19 | 26.8 ± 0.4 |  |  |  | COc1cc(/C=C/C(=O)c2cc(OC)c(OC)c(OC)c2)ccc1O [chalcone 9, (E)-3-(4-hydroxy-3-methoxyphenyl)-1-(3,4,5-trimethoxyphenyl)prop-2-en-1-one] |  |
| 10.8 ± 0.34 | 11.7 ± 0.29 | 13.6 ± 0.3 | 13.2 ± 0.42 | 11.5 ± 0.28 | 12.2 ± 0.23 | 14.2 ± 0.41 | 13.2 ± 0.4 |  | 215 to 217 |  |  | COc1cc(C(=O)/C=C/c2coc3ccccc3c2=O)cc(OC)c1OC [chalcone 12, (E)-3-(3-oxo-3-(3,4,5-trimethoxyphenyl)prop-1-en-1-yl)-4H-chromen-4-one] |  |
| 2.99 ± 0.33 | 1.33 ± 0.16 | 14.4 ± 0.65 | 11.4 ± 0.68 | 2.57 ± 0.44 | 1.47 ± 0.27 | 13.4 ± 0.21 | 3.99 ± 0.16 |  |  |  |  | COc1ccc(/C=C/C(=O)c2cc(OC)c(OC)c(OC)c2)c(O)c1 [chalcone 7, (E)-3-(2-hydroxy-4-methoxyphenyl)-1-(3,4,5-trimethoxyphenyl)prop-2-en-1-one] |  |
